From the Kinase Knowledgebase extract (Sharma et al. 2016)
Values joined by “and” are separate entries in the source; they are usually repeats but may differ in a detail not shown here. Equal entries are not always repeated.

Legend:
PIK3CA = PIK3CA (UniProt P42336); experiment: Inhibition of PIK3CA Kinase Activity; conditions: for inhibition: concentration not given here
PIK3CB = PIK3CB (UniProt P42338); experiment: Inhibition of PIK3CB Kinase Activity; conditions: for inhibition: concentration not given here
Chain of PIK3CB (P42338 whole entry, looked up): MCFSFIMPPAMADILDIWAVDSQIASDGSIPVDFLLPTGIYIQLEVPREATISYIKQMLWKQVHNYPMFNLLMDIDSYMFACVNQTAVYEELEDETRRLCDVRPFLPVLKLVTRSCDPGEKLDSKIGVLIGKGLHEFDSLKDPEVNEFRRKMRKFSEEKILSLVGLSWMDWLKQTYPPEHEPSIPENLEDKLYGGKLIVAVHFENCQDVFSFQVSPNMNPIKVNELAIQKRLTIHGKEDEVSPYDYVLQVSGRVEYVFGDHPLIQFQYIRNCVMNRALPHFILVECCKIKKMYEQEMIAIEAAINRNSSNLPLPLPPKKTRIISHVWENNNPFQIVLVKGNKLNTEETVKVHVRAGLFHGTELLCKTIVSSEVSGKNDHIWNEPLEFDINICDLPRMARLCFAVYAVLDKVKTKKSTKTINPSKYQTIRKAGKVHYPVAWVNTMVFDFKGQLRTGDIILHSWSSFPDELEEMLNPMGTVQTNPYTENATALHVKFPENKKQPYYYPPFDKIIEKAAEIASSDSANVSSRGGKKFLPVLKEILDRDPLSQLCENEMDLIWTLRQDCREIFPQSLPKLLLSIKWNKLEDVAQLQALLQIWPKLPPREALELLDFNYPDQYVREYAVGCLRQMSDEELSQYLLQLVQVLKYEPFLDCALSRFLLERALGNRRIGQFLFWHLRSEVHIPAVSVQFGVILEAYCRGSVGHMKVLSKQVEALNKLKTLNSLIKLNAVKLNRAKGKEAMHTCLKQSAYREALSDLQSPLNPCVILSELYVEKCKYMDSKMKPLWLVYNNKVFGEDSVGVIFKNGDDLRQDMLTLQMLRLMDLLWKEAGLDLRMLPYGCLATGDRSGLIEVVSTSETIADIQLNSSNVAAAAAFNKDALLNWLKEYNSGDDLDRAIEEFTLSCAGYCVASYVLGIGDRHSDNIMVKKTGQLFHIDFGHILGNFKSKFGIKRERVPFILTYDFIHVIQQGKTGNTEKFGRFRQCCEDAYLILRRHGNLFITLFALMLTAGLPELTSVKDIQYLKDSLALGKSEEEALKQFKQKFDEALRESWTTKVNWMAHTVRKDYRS

PIK3CD (Human) [1] = target: PIK3CD (Human) (UniProt O00329); experiment: Evaluation of PIK3CD inhibitors on Elastase Release in Human PMN Cells
Chain of PIK3CD (Human) (O00329 whole entry, looked up): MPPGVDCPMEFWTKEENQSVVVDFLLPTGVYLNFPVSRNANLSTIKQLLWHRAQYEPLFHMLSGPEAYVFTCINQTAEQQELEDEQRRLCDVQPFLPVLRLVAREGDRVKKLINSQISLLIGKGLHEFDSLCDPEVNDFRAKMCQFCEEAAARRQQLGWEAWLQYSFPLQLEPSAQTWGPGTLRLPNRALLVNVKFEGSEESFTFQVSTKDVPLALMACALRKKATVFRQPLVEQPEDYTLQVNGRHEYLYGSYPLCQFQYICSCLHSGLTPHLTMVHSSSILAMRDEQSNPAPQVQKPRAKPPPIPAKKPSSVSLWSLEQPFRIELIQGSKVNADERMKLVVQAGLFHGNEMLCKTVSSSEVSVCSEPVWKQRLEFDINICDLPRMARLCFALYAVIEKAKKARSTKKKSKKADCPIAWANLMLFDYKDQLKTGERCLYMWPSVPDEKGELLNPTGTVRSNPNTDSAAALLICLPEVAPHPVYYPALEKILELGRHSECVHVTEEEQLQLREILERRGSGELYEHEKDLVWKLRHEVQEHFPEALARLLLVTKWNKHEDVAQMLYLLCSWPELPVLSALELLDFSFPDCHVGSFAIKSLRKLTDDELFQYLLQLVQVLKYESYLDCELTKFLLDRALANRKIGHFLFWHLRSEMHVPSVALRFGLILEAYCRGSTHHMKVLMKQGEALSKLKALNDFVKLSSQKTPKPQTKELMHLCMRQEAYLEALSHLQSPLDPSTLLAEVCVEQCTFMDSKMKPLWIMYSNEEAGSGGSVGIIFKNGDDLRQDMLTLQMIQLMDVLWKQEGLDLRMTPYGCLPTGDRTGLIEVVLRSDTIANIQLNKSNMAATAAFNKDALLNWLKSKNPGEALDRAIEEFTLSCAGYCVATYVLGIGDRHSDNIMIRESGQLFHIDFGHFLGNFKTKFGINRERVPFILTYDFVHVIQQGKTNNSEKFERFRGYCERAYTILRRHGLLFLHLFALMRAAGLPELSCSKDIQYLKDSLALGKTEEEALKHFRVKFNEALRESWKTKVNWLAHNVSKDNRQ

PIK3CD (Human) [2] = target: PIK3CD (Human) (UniProt O00329); experiment: Assessment of Stimulus Induced TCE Cell Proliferation; conditions: t cells
PIK3CD (mouse) [3] = experiment: Assessment of Stimulus Induced B Cell Proliferation; conditions: b cells
PIK3CG = PIK3CG (UniProt P48736); experiment: Inhibition of PIK3CG Kinase Activity; conditions: for inhibition: concentration not given here
Chain of PIK3CG (P48736 whole entry, looked up): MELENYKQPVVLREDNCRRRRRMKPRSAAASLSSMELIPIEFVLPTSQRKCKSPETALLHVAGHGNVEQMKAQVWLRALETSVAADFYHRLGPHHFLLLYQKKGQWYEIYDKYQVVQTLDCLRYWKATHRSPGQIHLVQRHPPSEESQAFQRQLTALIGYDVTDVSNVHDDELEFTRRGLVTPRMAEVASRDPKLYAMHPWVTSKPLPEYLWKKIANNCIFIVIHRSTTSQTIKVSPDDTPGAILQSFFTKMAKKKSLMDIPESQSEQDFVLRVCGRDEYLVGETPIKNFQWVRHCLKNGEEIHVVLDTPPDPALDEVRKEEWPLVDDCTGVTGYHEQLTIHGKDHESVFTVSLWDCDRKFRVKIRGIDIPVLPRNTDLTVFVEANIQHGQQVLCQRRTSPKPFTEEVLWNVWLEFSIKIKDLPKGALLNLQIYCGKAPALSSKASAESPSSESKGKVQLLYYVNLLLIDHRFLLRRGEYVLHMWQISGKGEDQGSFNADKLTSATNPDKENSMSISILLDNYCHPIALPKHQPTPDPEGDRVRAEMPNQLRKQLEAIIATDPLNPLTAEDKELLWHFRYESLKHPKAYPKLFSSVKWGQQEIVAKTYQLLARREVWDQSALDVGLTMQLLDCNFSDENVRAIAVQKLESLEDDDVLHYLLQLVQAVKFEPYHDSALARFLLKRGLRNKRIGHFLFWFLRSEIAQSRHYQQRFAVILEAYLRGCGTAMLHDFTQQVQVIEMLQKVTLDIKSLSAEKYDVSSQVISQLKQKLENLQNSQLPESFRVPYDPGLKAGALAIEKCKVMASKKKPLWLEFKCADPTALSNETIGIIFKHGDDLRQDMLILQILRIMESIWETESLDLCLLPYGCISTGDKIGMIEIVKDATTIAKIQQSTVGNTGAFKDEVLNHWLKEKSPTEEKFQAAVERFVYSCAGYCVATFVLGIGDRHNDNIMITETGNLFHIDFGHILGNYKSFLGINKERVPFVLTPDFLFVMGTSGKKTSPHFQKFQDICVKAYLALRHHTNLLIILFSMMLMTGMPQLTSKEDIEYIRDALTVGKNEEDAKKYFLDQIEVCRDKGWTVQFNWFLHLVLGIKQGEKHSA

PIK3CD (Human) [4] = target: PIK3CD (Human) (UniProt O00329); experiment: Evaluation of PIK3CD inhibitors on Neutrophil Migration; conditions: pmn
PIK3CD (Human) [5] = target: PIK3CD (Human) (UniProt O00329); experiment: Evaluation of PIK3CD inhibitors on Basophil Function by Histamine Release Assay; conditions: basophils
PIK3CD = PIK3CD (UniProt O00329); experiment: Inhibition of PIK3CD Kinase Activity
Chain of PIK3CD (O00329 whole entry, looked up): as the sequence (O00329 whole entry, looked up) above

PIK3CD (Human) [6] = target: PIK3CD (Human) (UniProt O00329); experiment: Assessment of RWLeu4 Cell Proliferation
PIK3CD (Human) [7] = target: PIK3CD (Human) (UniProt O00329); experiment: Assessment of Cell Proliferation in KU812 Cells
PIK3CD (mouse) [8] = experiment: Evaluation of PIK3CD inhibitors on Osteoclast Function; conditions: bone marrow, dose or concentration not given here

Chain of PIK3CA (P42336 whole entry, looked up): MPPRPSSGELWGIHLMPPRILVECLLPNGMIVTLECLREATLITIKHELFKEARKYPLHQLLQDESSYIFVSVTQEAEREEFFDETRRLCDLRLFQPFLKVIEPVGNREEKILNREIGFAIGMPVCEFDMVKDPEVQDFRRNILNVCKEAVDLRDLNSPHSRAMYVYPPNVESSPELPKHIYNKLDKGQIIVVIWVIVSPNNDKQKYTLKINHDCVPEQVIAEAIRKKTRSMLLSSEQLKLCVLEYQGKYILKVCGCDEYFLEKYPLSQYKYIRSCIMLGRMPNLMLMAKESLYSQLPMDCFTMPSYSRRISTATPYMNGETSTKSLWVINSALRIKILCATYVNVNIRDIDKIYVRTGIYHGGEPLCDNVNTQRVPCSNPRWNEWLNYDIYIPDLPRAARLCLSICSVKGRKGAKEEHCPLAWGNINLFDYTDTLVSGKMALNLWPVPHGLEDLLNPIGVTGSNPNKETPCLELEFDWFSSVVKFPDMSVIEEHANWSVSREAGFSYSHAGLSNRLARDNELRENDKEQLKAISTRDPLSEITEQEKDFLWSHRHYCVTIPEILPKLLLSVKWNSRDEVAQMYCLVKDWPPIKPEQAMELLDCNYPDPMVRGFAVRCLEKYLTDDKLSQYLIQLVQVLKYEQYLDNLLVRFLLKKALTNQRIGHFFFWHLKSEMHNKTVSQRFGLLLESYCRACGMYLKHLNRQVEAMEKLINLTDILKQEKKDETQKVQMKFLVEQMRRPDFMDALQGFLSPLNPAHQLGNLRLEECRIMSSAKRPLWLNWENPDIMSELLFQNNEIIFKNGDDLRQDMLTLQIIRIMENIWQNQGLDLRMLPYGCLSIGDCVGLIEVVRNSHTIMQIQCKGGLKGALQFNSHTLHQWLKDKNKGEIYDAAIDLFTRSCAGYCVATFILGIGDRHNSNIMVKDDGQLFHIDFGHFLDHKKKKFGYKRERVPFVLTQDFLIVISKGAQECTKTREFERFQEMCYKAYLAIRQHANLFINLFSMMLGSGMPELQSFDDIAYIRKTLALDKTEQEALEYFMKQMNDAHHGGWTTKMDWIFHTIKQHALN

| Compound | inhibition (PIK3CA) | inhibition (PIK3CB) | EC50 (PIK3CD (Human) [1]) | EC50 (PIK3CD (Human) [2]) | IC50 (PIK3CB) | EC50 (PIK3CD (mouse) [3]) | further results |
| --- | --- | --- | --- | --- | --- | --- | --- |
| O=c1c2ccccc2nc(CSc2ncnc3[nH]cnc23)n1-c1cccc(Cl)c1 | 33% | 35% |  |  |  |  |  |
| Cc1cccc2nc(Cn3cnc4c(N)ncnc43)n(-c3ccccc3Cl)c(=O)c12 |  |  | 400 nM | 4.2 µM | 30 µM and 72 µM | 300 nM |  |
| Nc1ncnc2c1ncn2Cc1nc2cccc(Cl)c2c(=O)n1-c1ccccc1-c1ccccc1 | 30% |  | 10500 nM |  | 6 µM and 18 µM | 300 nM | IC50 (PIK3CA): 82 µM |
| COc1ccccc1-n1c(CSc2ncnc3[nH]cnc23)nc2cccc(C)c2c1=O | 19% |  | 500 nM |  | 30 µM and 9 µM | 300 nM | IC50 (PIK3CA): 30 µM |
| Nc1ncnc2c1ncn2Cc1nc2cccc(Cl)c2c(=O)n1-c1ccccc1F |  |  | 300 nM |  | 108 µM and 11 µM | 300 nM | IC50 (PIK3CG): 50 µM |
| Nc1ncnc2c1ncn2Cc1nc2cccc(F)c2c(=O)n1Cc1ccccc1 | -10% |  | 5000 nM | 6.3 µM | 30 µM | 2000 nM |  |
| O=c1c2cc(F)ccc2nc(CSc2ncnc3[nH]cnc23)n1-c1ccccc1Cl |  | 19% | 1000 nM |  | 13 µM | 400 nM |  |
| COc1cccc(Cn2c(CSc3ncnc4[nH]cnc34)nc3ccccc3c2=O)c1 |  |  |  |  |  |  | IC50 (PIK3CG): 72 µM |
| Nc1ncnc2c1ncn2Cc1nc2ccccc2c(=O)n1N1CCOCC1 | 11% | 43% |  |  |  |  |  |
| Cc1cccc2nc(CSc3ncnc4[nH]cnc34)n(-c3ccccc3Cl)c(=O)c12 |  |  | 200 nM | 3.5 µM |  | 300 nM | EC50 (PIK3CD (Human) [4]): 300 nM; EC50 (PIK3CD (Human) [5]): 25 nM |
| O=c1cc(N2CCOCC2)oc2c(-c3ccccc3)cccc12 |  |  |  |  |  | 900 nM | inhibition (PIK3CD (Human) [5]; concentration not given here): 100% |
| O=c1c2cccc(C(F)(F)F)c2nc(CSc2ncnc3[nH]cnc23)n1-c1ccccc1Cl | 12% | 7% |  |  |  |  | IC50 (PIK3CD): 4.2 µM |
| O=c1c2ccccc2nc(CSc2ncnc3[nH]cnc23)n1N1CCOCC1 |  |  | 5000 nM |  |  | 900 nM | inhibition (PIK3CG): 57% |
| COc1cccc(-n2c(CSc3ncnc4[nH]cnc34)nc3ccccc3c2=O)c1 | 23% | 36% |  |  |  |  |  |
| O=c1c2ccccc2nc(CSc2ncnc3[nH]cnc23)n1-c1ccccc1 |  |  |  |  |  | 1400 nM | inhibition (PIK3CG): 39% |
| O=c1c2c(Cl)cccc2nc(CSc2ncnc3[nH]cnc23)n1-c1ccccc1-c1ccccc1 |  | 27% |  |  | 13 µM | 1400 nM |  |
| O=c1c2cc(O)ccc2nc(CSc2ncnc3[nH]cnc23)n1-c1ccccc1Cl |  | 24% | 2900 nM |  |  |  | IC50 (PIK3CA): 100 µM |
| O=c1c2ccccc2nc(CSc2ncnc3[nH]cnc23)n1Cc1ccccc1 |  | 42% | 1300 nM |  | 80 µM | 1200 nM | EC50 (PIK3CD (Human) [4]): 2000 nM |
| Nc1ncnc2c1ncn2Cc1nc2ccc(Br)cc2c(=O)n1-c1ccccc1Cl | 12% | 22% |  |  |  |  |  |
| O=c1c2c(F)cccc2nc(CSc2ncnc3[nH]cnc23)n1-c1ccccc1Cl |  |  | 1300 nM | 1.8 µM |  | 1200 nM | EC50 (PIK3CD (Human) [4]): 2000 nM; inhibition (PIK3CG): 83% |
| Cc1cccc2nc(CSc3ncnc4[nH]cnc34)n(-c3ccccc3C(C)C)c(=O)c12 |  |  | 300 nM | 2.9 µM |  | 200 nM |  |
| Cc1cccc2nc(CSc3ncnc4[nH]cnc34)n(-c3ccccc3F)c(=O)c12 | 13% |  | 700 nM |  |  | 200 nM | IC50 (PIK3CA): 74 µM |
| O=c1c2cc(Cl)ccc2nc(CSc2ncnc3[nH]cnc23)n1-c1ccccc1Cl | 31% | 31% |  |  |  |  |  |
| Cc1cccc2nc(CSc3ncnc4[nH]cnc34)n(-c3c(Cl)cccc3Cl)c(=O)c12 | 8% |  |  |  | 11 µM and 103 µM | 600 nM | IC50 (PIK3CA): 19 µM |
| O=c1c2cccc(Cl)c2nc(CSc2ncnc3[nH]cnc23)n1-c1ccccc1Cl |  |  |  | 3.5 µM | 110 µM | 1800 nM | IC50 (PIK3CA): 100 µM |
| Cc1ccccc1-n1c(Cn2cnc3c(N)ncnc32)nc2cccc(C)c2c1=O |  |  |  |  |  | 100 nM |  |
| O=c1c2ccccc2nc(CSc2ncnc3[nH]cnc23)n1-c1ccc(Cl)cc1 |  | 31% |  |  |  |  | IC50 (PIK3CA): 0.7 µM |

| Compound | inhibition (PIK3CA) | inhibition (PIK3CB) | EC50 (PIK3CD (Human) [1]) | EC50 (PIK3CD (Human) [2]) | IC50 (PIK3CB) | EC50 (PIK3CD (mouse) [3]) | further results |
| --- | --- | --- | --- | --- | --- | --- | --- |
| Nc1ncnc2c1ncn2Cc1nc2ccc(Cl)cc2c(=O)n1-c1ccccc1Cl | 7% | 11% |  |  |  |  |  |
| COc1cc2nc(CSc3ncnc4[nH]cnc34)n(-c3ccccc3Cl)c(=O)c2cc1OC | 9% | 19% |  |  |  |  |  |
| O=c1c2ccccc2nc(CSc2ncnc3[nH]cnc23)n1-c1ccncc1 | 30% |  |  |  | 25 µM |  |  |
| O=c1c2ccccc2nc(CSc2ncnc3[nH]ncc23)n1-c1ccccc1Cl | 38% | 29% | > 20000 nM | 5.9 µM |  | 3100 nM | EC50 (PIK3CD (Human) [4]): 1000 nM; IC50 (PIK3CA): 105 µM |
| Nc1ncnc2c1ncn2Cc1nc2cccc(Cl)c2c(=O)n1-c1ccccc1Cl |  |  | 300 nM | 5.3 µM | 6 µM and 44 µM | 200 nM |  |
| O=c1c2cc(F)c(F)cc2nc(CSc2ncnc3[nH]cnc23)n1-c1ccccc1Cl |  |  | 2000 nM |  | 110 µM and 58 µM | > 2000 nM |  |
| CCCCn1c(Cn2cnc3c(N)ncnc32)nc2ccccc2c1=O | 1% |  |  |  | 41 µM |  |  |
| CN1CCN(n2c(CSc3ncnc4[nH]cnc34)nc3ccccc3c2=O)CC1 |  |  |  |  | 61 µM |  | IC50 (PIK3CA): 105 µM |
| COc1ccccc1-n1c(CSc2ncnc3[nH]cnc23)nc2ccccc2c1=O | 36% |  |  |  | 95 µM |  |  |
| COc1cc2nc(Cn3cnc4c(N)ncnc43)n(-c3ccccc3Cl)c(=O)c2cc1OC | 17% |  |  |  | 45 µM |  |  |
| O=c1c2cc3ccccc3cc2nc(CSc2ncnc3[nH]cnc23)n1-c1ccccc1Cl | 0% |  |  | 0.9 µM | 105 µM and 100 µM | 900 nM | IC50 (PIK3CA): 67 µM |
| Nc1ncnc2c1ncn2Cc1nc2cc(F)ccc2c(=O)n1-c1ccccc1Cl |  | 47% |  | 5.7 µM |  | 3900 nM | IC50 (PIK3CA): 92 µM |
| COc1ccccc1Cn1c(CSc2ncnc3[nH]cnc23)nc2ccccc2c1=O |  | 27% | 5500 nM | 4.1 µM | 31 µM | 900 nM | EC50 (PIK3CD (Human) [4]): 200 nM |
| O=c1c2c(Cl)cccc2nc(CSc2ncnc3[nH]cnc23)n1-c1ccccc1F |  |  | 900 nM |  | 105 µM and 55 µM | 300 nM |  |
| Cc1cccc2nc(Cn3cnc4c(N)ncnc43)n(-c3ccccc3C(C)C)c(=O)c12 | -10% |  | 500 nM | 3.4 µM |  | 100 nM | EC50 (PIK3CD (Human) [4]): 300 nM; IC50 (PIK3CA): 49 µM |
| O=c1c2ccc(F)cc2nc(CSc2ncnc3[nH]cnc23)n1-c1ccccc1Cl |  | -1% |  | 2.3 µM | 110 µM | 1800 nM | inhibition (PIK3CG): 40% |
| Nc1ncnc2c1ncn2Cc1nc2cccc(F)c2c(=O)n1-c1ccccc1Cl |  | 18% | 4300 nM | 3.9 µM | 46 µM | 700 nM | inhibition (PIK3CG): 9% |
| Nc1ncnc2c1ncn2Cc1nc2c(Cl)cccc2c(=O)n1-c1ccccc1Cl | 18% |  |  |  | 68 µM | 1000 nM |  |
| CCOC(=O)Cn1c(CSc2ncnc3[nH]cnc23)nc2cccc(F)c2c1=O | 2% | 26% | 9000 nM |  |  |  |  |
| O=c1c2c(F)cccc2nc(CSc2ncnc3[nH]cnc23)n1Cc1ccccc1 | 17% | 23% |  | 2.6 µM |  | 1400 nM |  |
| O=c1c2cc(Br)ccc2nc(CSc2ncnc3[nH]cnc23)n1-c1ccccc1Cl | 11% | -8% |  |  |  |  |  |
| O=c1c2c(Cl)cccc2nc(CSc2ncnc3[nH]cnc23)n1-c1ccccc1Cl |  |  | 300 nM | 4.4 µM |  | 300 nM | EC50 (PIK3CD (Human) [4]): 300 nM |
| Cc1ccccc1-n1c(CSc2ncnc3[nH]cnc23)nc2cccc(Cl)c2c1=O | 26% |  | 300 nM |  |  | 200 nM | IC50 (PIK3CA): 48 µM |
| Cc1cccc2nc(Cn3cnc4c(N)ncnc43)n(-c3ccccc3F)c(=O)c12 |  |  | 900 nM | 5 µM | 95 µM and 14 µM | 400 nM | IC50 (PIK3CA): 90 µM and 70 µM |
| O=c1c2ccccc2nc(CSc2ncnc3[nH]cnc23)n1-c1ccccc1Cl |  |  | 2200 nM | 5.5 µM |  | 900 nM | EC50 (PIK3CD (Human) [4]): 1000 to 5000 nM; EC50 (PIK3CD (Human) [6]): 2000 nM; EC50 (PIK3CD (Human) [7]): 2000 nM; inhibition (PIK3CD (mouse) [8]): 99% |
| CCCCn1c(CSc2ncnc3[nH]cnc23)nc2ccccc2c1=O |  |  | 5000 nM | 2.9 µM |  | 1400 nM |  |
| O=c1c2ccc([N+](=O)[O-])cc2nc(CSc2ncnc3[nH]cnc23)n1-c1ccccc1Cl | 17% | 9% |  |  |  |  |  |
